Reference: US20240091247A1, “INHIBITOR FOR CHRONIC MYELOID LEUKEMIA STEM CELLS” (Ohara Pharmaceutical Co., Ltd., priority 2021, published 2024)

Legend:
[1] = system: stem cells or progenitor cells of CML; assay: Mouse model of CML (recipient mice engrafted with GFP positive MIG-BCR-ABL1 myeloid cells); type: in vivo; conditions: after 12 days of administration, OR21 1.35 mg/kg i.p., IM 150 mg/kg oral
Description: Recipient mice were engrafted with myeloid cells to which GFP positive MIG-BCR-ABL1 had been introduced and used as CML models. […] After administration of the drugs to each group for 12 days, the GFP positive cells in peripheral blood, bone marrow, and spleen were determined. Inter-group comparisons were performed by a significance test of Mann-Whitney U-tests (p<0.05, **p<0.01) in FIG. 1.

LXN [2] = assay: LXN gene expression by microarray in KBM5 cells; type: cell-based; conditions: 100 nM OR21, 1000 nM imatinib
Description: (§1) K562 cells (cell lines derived from CML) were purchased from JCRB cell bank and KBM5 cells (cell lines derived from CML) were provided by Dr. M. Beran (MD Anderson Cancer Center, University of Texas). These calls were cultured in an RPMI 1640 medium containing 10% fetal bovine serum (FBS) and 1% penicillin-streptomycin at 37° C. in atmosphere of 5% CO2.
(§2) After the culture, mRNA was collected and gene expression was comprehensively analyzed by microarrays.

stem cells of CML = assay: Limiting dilution assay in secondarily transplanted mice; type: in vivo; conditions: peripheral blood, 16 weeks after secondary transplantation; compared to vehicle or IM donor group
Description: Then, engraftment of GFP positive cells in the peripheral blood (PB) at 16 weeks after the secondary transplantation was determined and analyzed by limiting dilution assay. […] The bottom row of the table indicates the cell number required to be engrafted. The larger numbers mean that it is more difficult to engraft. It is noted that engraftment of GFP positive cells is defined to have a GFP positive rate of 0.5% or more in the peripheral blood of recipient mice. […] The higher plots or slope of the lines mean that it is more difficult to engraft.

LXN [3] = assay: LXN gene expression by microarray in K562 cells; type: cell-based; conditions: 100 nM OR21, 1000 nM imatinib
Description: as §1, §2

LXN [4] = assay: LXN protein expression by Western blotting, OR21 with TKI (FIG. 5); type: cell-based; conditions: K562 and KBM5 cells, 100 nM OR21, 1000 nM imatinib, 2.5 nM dasatinib, 1, 2 and 3 days, corrected with β actin
Description: as §1
0, 24, and 48 hours after the cell seeding, 100 nM OR21, a DNA methyltransferase inhibitor, was added. […] After the culture, the cells were collected, dissolved, and determined for protein expression level of LXN by Western blotting. […] The expression level of LXN shown in FIG. 5 represents each expression level of the cases when the LXN expression under each condition was corrected with β actin and the expression level in the control was taken as 1.0.

DNMT1 = DNMT1 expression in K562 cells (FIG. 6); type: cell-based; conditions: 100 nM azacytidine, decitabine or cytarabine
LXN [5] = assay: LXN protein expression by Western blotting in K562 cells, azacytidine/decitabine/cytarabine with imatinib (FIG. 6); type: cell-based; conditions: 100 nM azacytidine, decitabine or cytarabine, 1000 nM imatinib
Description: 0, 24, and 48 hours after the cell seeding, azacytidine (100 nM), decitabine (100 nM), or cytarabine (100 nM) was added to K562 cell culture, cultured for 2 days. […] After the culture, the cells were collected, dissolved, and determined for protein expression level of LXN by Western blotting. The expression level of LXN shown in FIG. 6 represents each expression level of the cases when the LXN expression under each condition was corrected with β actin and the expression level in the control was taken as 1.0.

CC[Si](CC)(CC)OC[C@H]1O[C@@H](n2cnc(N)nc2=O)C[C@@H]1O [OR21]
linage-negative cells (Lin-) in bone marrow [1]: decreased | Lin-Sca-1+c-Kit+ (LSK) cells ([1]; bone marrow): decreased | GFP positive cell rate ([1]; peripheral blood, bone marrow and spleen, compared to vehicle group): significant decrease | gene expression level of LXN in respect of the control (LXN [2]): 3.4 times | GFP positive cells in mice of the secondary transplantation (stem cells of CML): significantly reduced | gene expression level of LXN in respect of the control (LXN [3]): 4.5 times | protein expression level of LXN (LXN [4]): increase in the protein expression level of LXN over time

Nc1ncn([C@@H]2O[C@H](CO)[C@@H](O)[C@H]2O)c(=O)n1 [azacytidine, 4-amino-1-β-D-ribofuranosyl-s-triazin-2(1H)-one]
expression of DNMT1 (DNMT1): reduced

Nc1ccn([C@@H]2O[C@H](CO)[C@@H](O)[C@@H]2O)c(=O)n1 [cytarabine]
protein expression of LXN (LXN [5]): no increase | expression of DNMT1 (DNMT1): did not exhibit inhibitory effect

Nc1ncn([C@H]2C[C@H](O)[C@@H](CO)O2)c(=O)n1 [decitabine, 4-amino-1-(2-deoxy-β-D-erythro-pentofuranosyl)-1,3,5-triazin-2(1H)-one]
protein expression of LXN (LXN [5]): increased | expression of DNMT1 (DNMT1): reduced

Cc1ccc(NC(=O)c2ccc(CN3CCN(C)CC3)cc2)cc1Nc1nccc(-c2cccnc2)n1 [imatinib]
gene expression level of LXN in respect of the control (LXN [2]): 1.9 times | gene expression level of LXN in respect of the control (LXN [3]): 1.3 times | protein expression level of LXN (LXN [4]): almost no effect
